The values below come from patent publication US10711007B2, “Selective inhibitors of protein arginine methyltransferase 5 (PRMT5)” (Prelude Therapeutics, Incorporated, priority 2018, dated 2020).

SMILES strings stand for the structures.

Assay [1] concerns fetal hemoglobin expressing erythroid cells (% F cells). Nature of the assay: % F cells by flow cytometry in human erythroid cells. It is filed as cell-based. As to conditions: erythroid progenitors, Day 7 of treatment, N=1. The protocol:
Human erythroid progenitor cells were generated from purified CD34+ cells from mobilized peripheral blood purchased from AllCells. CD34+ cells were cultured in StemSpan SFEM II (StemCell Technologies, Catalog #09605) supplemented with 100 ng/ml FLT3 ligand (R&D systems, Catalog #308-FK), 100 ng/ml SCF (R&D systems, Catalog #255-SC), 20 ng/ml IL-3 (R&D systems, Catalog #203-IL), 20 ng/ml IL-6 (R&D systems, Catalog #206-IL) for 6 days, then reseeded into the same medium supplemented with 20 ng/ml SCF, 5 ng/ml IL-3, 1 U/ml EPO (R&D systems, Catalog #287-TC), 2 μM dexamethasone (Sigma-Aldrich, Catalog # D4902), 1 μM β-estradiol (Sigma-Aldrich, Catalog # E2758). Cells were treated with 0.1 and 1 μM compound from Day 8 of differentiation. Media and compound were renewed every 3 days and cells were collected for RNA isolation after 9 days of treatment.
Assessment of % F Cells by Flow Cytometry
Human erythroid cells were collected on Day 7 of treatment with compound. Cells were fixed in 0.05% glutaraldehyde (Electron Microscopy Sciences, Catalog #16019), permeabilized with 0.1% Triton-X and stained with FITC-conjugated antibody directed to fetal hemoglobin (ThermoFisher, Catalog # MHFH01). Analysis of fetal hemoglobin expressing erythroid cells (% F cells) was performed on an Attune Nxt flow cytometer (ThermoFisher).
(In flow cytometry, cells or beads pass a laser one at a time.)

The test system of assay [2] is sDMA (SmD3me2s) in human PBMCs. The assay can be described thus: Western blotting for sDMA in PHA-L activated human PBMCs. As to conditions: PBMC, 72 h, 3 days. It is filed as cell-based. As to the method: Compound Titration and Cell Culture:
Compounds were dissolved in DMSO to make 10 mM stock solutions. Human peripheral blood mononuclear cells (PBMCs) from healthy donors were purchased from AllCells (Emeryville, Calif.), maintained in RPMI 1640 (Corning Cellgro, Catalog #: 10-040-CV) supplemented with 10% v/v heat-inactivated FBS (GE Healthcare, Catalog #: SH30910.03), 2 mM L-Glutamine (Corning Cellgro, Catalog #25005CV) and 1× Penicillin-Streptomycin (Sigma-Aldrich, Catalog # P4333) in a CO2 incubator (5% CO2) at 37° C.
To Determine Enzyme Inhibition IC50 Values in Human PBMCs:
Freshly thawed cells were seeded at a density of 25×10^5 cells/ml in 2 ml of media in a 12 well plate. Cells were activated by addition of 5 μg/ml PHA-L (Sigma-Aldrich, Catalog # L4144) for 3 days. A series of 8-point, 3-fold dilutions of compound were dispensed into wells from 1 mM stock solution using TECAN digital dispenser (D300e) and concentration of DMSO was normalized to 0.1%. […]
Cells were harvested 3 days later, resuspended in 15 μL PBS, lysed in 4% SDS, and homogenized by passing through homogenizer column (Omega Biotek, Catalog #: HCR003). Total protein concentration were determined by BCA assay (ThermoFisher Scientific, Catalog #: 23225). […] SmD3me2s bands were quantified by ImageJ. […] IC50 values were calculated using Graphpad Prism ([Inhibitor] vs. normalized response-Variable slope).
In general terms: A western blot detects proteins with antibodies after separation by electrophoresis.

In another assay the target is PRMT5/MEP50 complex (Homo sapiens (Human), UniProt O14744). The assay can be described thus: Biochemical assay: PRMT5/MEP50 methylation of histone H4 based AcH4-23, SPA readout. The conditions noted are these: PRMT5/MEP50 2.5 nM, 300 nM AcH4-23, 1 μM 3H-SAM. Summed up:
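PRMT5/MEP50 (2.5 nM final) preincubated with compound 20 min at 37°C alongside 300 nM AcH4-23 peptide. Reaction started with 1 µM [3H-methyl]-SAM, run 30 min at 37°C and quenched with guanidine HCl. Streptavidin SPA beads, scintillation counting; IC50 from four-parameter Hill fit.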

PRMT5/MEP50 complex, sequence (O14744 whole entry): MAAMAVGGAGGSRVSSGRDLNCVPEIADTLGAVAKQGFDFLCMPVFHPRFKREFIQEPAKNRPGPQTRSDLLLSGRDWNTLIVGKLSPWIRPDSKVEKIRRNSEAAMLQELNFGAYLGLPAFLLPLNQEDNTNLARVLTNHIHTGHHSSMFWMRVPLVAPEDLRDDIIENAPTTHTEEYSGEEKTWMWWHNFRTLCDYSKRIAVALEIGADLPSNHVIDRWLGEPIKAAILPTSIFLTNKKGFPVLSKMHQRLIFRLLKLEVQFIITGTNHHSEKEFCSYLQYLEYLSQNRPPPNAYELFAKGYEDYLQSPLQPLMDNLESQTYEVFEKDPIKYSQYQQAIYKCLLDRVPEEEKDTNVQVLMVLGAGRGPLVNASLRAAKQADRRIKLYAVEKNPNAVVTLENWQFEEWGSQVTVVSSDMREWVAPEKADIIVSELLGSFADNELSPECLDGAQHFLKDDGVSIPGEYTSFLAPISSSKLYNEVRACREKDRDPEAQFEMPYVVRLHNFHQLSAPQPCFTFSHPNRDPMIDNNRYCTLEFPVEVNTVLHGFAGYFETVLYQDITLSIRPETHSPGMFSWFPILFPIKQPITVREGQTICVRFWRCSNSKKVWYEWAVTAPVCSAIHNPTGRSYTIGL
PRMT5/MEP50 complex, sequence (Q9BQA1 whole entry partner): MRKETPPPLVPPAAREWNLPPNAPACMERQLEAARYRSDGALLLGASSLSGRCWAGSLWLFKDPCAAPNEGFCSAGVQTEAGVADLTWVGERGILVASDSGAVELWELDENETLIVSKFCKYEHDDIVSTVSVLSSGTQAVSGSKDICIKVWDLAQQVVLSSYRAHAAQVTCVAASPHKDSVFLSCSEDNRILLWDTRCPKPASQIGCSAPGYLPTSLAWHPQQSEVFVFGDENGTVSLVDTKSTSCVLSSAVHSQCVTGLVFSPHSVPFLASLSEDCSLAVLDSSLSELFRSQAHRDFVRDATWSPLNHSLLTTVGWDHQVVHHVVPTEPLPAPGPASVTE

Usually IC50 stands for the midpoint of a concentration-inhibition curve. A high value points to weaker potency in that assay. `Nc1ncnc2c1ccn2[C@@H]1O[C@H]([C@@H]2OCc3ccc(Cl)cc32)[C@@H](O)[C@H]1O` [Example 5, (2R,3R,4S,5S)-2-(4-amino-7H-pyrrolo[2,3-d]pyrimidin-7-yl)-5-((R)-6-chloro-1,3-dihydroisobenzofuran-1-yl)tetrahydrofuran-3,4-diol]: the “increase in % F cells compared to DMSO treated control” value is given as 1.3 fold in assay [1] (0.1 μM) and 3 fold in assay [1] (1 μM). Further, the figures for the IC50 (in assay [2]; against PRMT5/MEP50 complex) were 16 nM and 1 nM, respectively.
